Tests used:
HeLa cells [1] = test: FACS staining of camptothecin-treated apoptotic HeLa cells; format: cell-based; details: for cell staining over time (FACS): 12 h, 24 h, annexin binding buffer; for percent apoptotic cells as measured with the probe: camptothecin; for uptake by apoptotic HeLa cells (FACS) / uptake by control untreated HeLa cells (FACS): FIG. 6
Protocol: HeLa cells (5×10^5 in 10 cm plates) maintained in DMEM with 10% FBS were contacted with 5 μM camptothecin to induce apoptosis. Cell staining by FITC-labeled Annexin V (Abcam, Cambridge, Mass.) or Cy5.5-labeled chicken LDH (1 μL) prepared as described in Example 1, was measured by fluorescence-activated cell sorting (FACS) analysis (with cells in annexin binding buffer (Abcam)) 12 h, 24 h, and 48 h later. Untreated HeLa cells served as negative controls.
Staining by Annexin V is known to require the presence of calcium. […] HeLa cells treated with camptothecin to induce apoptosis as in Example 9 were stained with FITC-labeled Annexin V (Abcam, Cambridge, Mass.) or Cy5.5-labeled chicken LDH in calcium-containing Annexin buffer or in calcium-free PBS. Stained cells were analyzed by FACS analysis as in Example 9.
HeLa cells (5×10^5 in 10 cm plates) maintained in DMEM with 10% FBS were contacted with 5 μM camptothecin to induce apoptosis. Cell staining was done in the media: (i) annexin buffer, (ii) DMEM supplemented with 1% FBS; (iii) DMEM supplemented with 2% FBS; (iii) DMEM supplemented with 5% FBS; (iv) DMEM supplemented with 10% FBS. For cell staining FITC-labeled Annexin V (Abcam, Cambridge, Mass.) or Cy5.5-labeled chicken LDH (1 μL) prepared as described in Example 1, was used to for FACS analysis (cells in annexin binding buffer (Abcam)) 48 h later. Untreated HeLa cells served as negative controls. […]

HeLa cells [2] = test: Confocal microscopy of stained apoptotic HeLa cells; format: cell-based
RS4;11 cells = test: FACS staining of RS4;11 cells treated with NVP-LAQ824; format: cell-based; details: RS4;11, 50 nM NVP-LAQ824, 24 h
Protocol: RS4;11 is a MLL-AF4 fusion transcript-positive t(4;11) pre-B ALL cell line that is highly resistant to chemotherapy and radiation. In this experiment RS4;11 cells (1×10^6) were treated with 50 nM NVP-LAQ824 (Novartis Pharma, Basel, Switzerland) for 24 h and then contacted with FITC-labeled Annexin V (Abcam, Cambridge, Mass.) or Cy5.5-labeled chicken LDH and analyzed by FACS as in Example 9. NVP-LAQ824 is a potent hydroxamic acid-derived histone deacetylase inhibitor that induces apoptosis in nanomolar concentrations in myeloid leukemia cell lines, multiple myeloma, and patient samples. Catley L et al. (2003) Blood 102:2615-22.
In a related experiment, RS4;11 cells were treated with 50 nM NVP-LAQ824 in culture media for 24 h and then stained with FITC-labeled Annexin V or A680-labeled human LDH-B in either Annexin buffer or culture media. Apoptosis was measured by FACS analysis. Results indicated a significant difference between 11-12 percent apoptotic cells as measured with FITC-labeled Annexin V in Annexin buffer versus only 4 percent apoptotic cells as measured with FITC-labeled Annexin V in culture media. In contrast, results indicated 11-12 percent apoptotic cells as measured with A680-labeled LDH-B, whether in Annexin buffer or culture media.

THP-1 cells [3] = test: Competition for Annexin V and LDHB binding to apoptotic THP-1 cells; format: cell-based; details: probe 0.1 μM; for staining of apoptotic cells in the presence of excess unlabeled Annexin V: 5- and 10-fold excess
Protocol: To determine whether physiological levels of LDH may preclude binding of a LDH probe, the ability of excess unlabeled cLDHB and Annexin V to compete for binding of apoptotic cells by FITC conjugated Annexin V and cLDHB was assessed.
Apoptosis was induced in THP-1 cells with LAQ824 (50 nM, 18 hrs), and cells were stained with either Annexin V-FITC or cLDHB-FITC at a final concentration of 0.1 μM. For competition, staining was performed in the presence of excess unlabeled LDHB or Annexin V.

THP-1 cells [4] = test: Staining of THP-1 cells treated with HDAC inhibitor LAQ824; format: cell-based; details: THP-1, LAQ824 50 nM, 18 hrs
Protocol: To correlate cLDHB staining with other measures of apoptosis, a fluorescent probe that binds to activated caspases (pan-caspase-FLICA, Immunochemistry Tech) was used. THP-1 cells were treated with the HDAC inhibitor LAQ824 (50 nM, 18 hrs) to induce apoptosis.
Similarly, we asked whether the […] proteins performed comparably to purified recombinant LDH.

apoptotic cells [5] = test: Staining requirements (temperature, calcium) of cLDHB and Annexin V; format: cell-based
Protocol: To determine if cLDHB is actively transported into cells, staining was performed at room temperature and at 4° C.
A major limitation of Annexin V staining is the requirement for supra-physiological concentrations of calcium (Tait, J. F., D. F. Gibson, and C. Smith, Anal Biochem, 2004. 329: 112-9). To determine whether cLDHB staining required calcium, Annexin V and cLDHB staining was performed in PBS (without calcium or magnesium) or in Annexin Binding Buffer (with 2.5 mM calcium).

apoptotic cells [6] = test: Homogeneous multiwell apoptosis assay in normal growth medium; format: cell-based; details: e.g., RPMI with 10% FBS, flow cytometry or High-Content Microscopy
[7] = test system: Ku812-Luc+ (BCR-ABL+CML blast crisis) cells; test: In vivo imaging of chemotherapy-induced apoptosis (AMN107); parameters: species or system mice; details: 100 mg/kg IP; day 5
Protocol: Subcutaneous tumors were established using Ku812-Luc+ (BCR-ABL+CML blast crisis) cells in NCr nude mice. When tumors were ˜1 cm, mice underwent bioluminescence imaging (BLI) to determine baseline tumor burden, followed by treatment with either AMN107 (nilotinib) at 100 mg/kg intraperitoneally (IP), or with vehicle. After 3 doses, animals were injected with 20 μg of LDH-Alexa750. Fluorescence imaging (FL) was performed 24 and 48 hrs after probe injection (day 4 and 5 of treatment) and BLI was repeated on day 5 of treatment (FIG. 9A).

hepatocyte apoptosis = test: In vivo NIR imaging of fulminant hepatic failure (anti-Fas antibody); parameters: species or system mice; details: liver region; 10 μg probe; 25 hrs after probe injection
Protocol: This model was used to compare LDH to Annexin V for near infrared (NIR) imaging of apoptosis. Alexa750-NHS was conjugated to Annexin V (Biovision) and chicken LDHB (XpressBio) at a labeling ratio of 2:1 per mole of protein based on prior optimization. A total of 10 male NCr nude mice were injected with 5 μg of anti-Fas antibody (Jo2, Pharmingen), and 10 animals were injected with 5 μg of an isotype-matched control antibody. Two hours later, mice were injected with 10 μg of either LDH-Alexa750 or Annexin V-Alexa750. Mice underwent NIR fluorescence imaging (IVIS Spectrum, Caliper) 25 hrs after probe injection (FIG. 8A). After spectral unmixing and background subtraction (Living Images software package), regions of interest were used to quantify fluorescence localized to the liver region (FIG. 8A), as indicated with arrowheads.

[8] = calcium-containing Annexin V buffer

## LDHB: LDHB not fused to GST, served as a positive control
HeLa cells [1]; HeLa, 5 μM camptothecin, 48 h, FIG. 5
  uptake by / staining of apoptotic cells (FACS): stained apoptotic cells

## FITC-labeled Annexin V: FITC-labeled Annexin V (Abcam), phosphatidylserine-binding apoptosis probe [reference compound]
HeLa cells [1]; HeLa, 5 μM camptothecin, 48 h
  cell staining over time (FACS): progressively stained positive
HeLa cells [1]; [8]
  staining of apoptotic cells (FACS): strongly positive
HeLa cells [1]; calcium-free PBS
  staining of apoptotic cells (FACS): essentially not at all
HeLa cells [2]
  staining pattern (confocal microscopy): membranous
RS4;11 cells
  apoptosis over background levels as measured with the probe: only a mild increase
RS4;11 cells; staining in culture media
  apoptotic cells as measured with the probe: 4%
THP-1 cells [3]
  staining of apoptotic cells in the presence of excess unlabeled Annexin V: abrogated

## cLDHB-A680: chicken LDHB labeled with A680 (Alexa 680)
THP-1 cells [4]
  coincidence of staining with caspase activation (pan-caspase-FLICA): entirely coincident

## Annexin V: fluorescently labeled Annexin V probe used as comparator; FITC-labeled in Example 12 [reference compound]
HeLa cells [1]; FBS 10 percent, HeLa, 48 h
  percent apoptotic cells as measured with the probe: about 15%
HeLa cells [1]; FBS zero, HeLa, 48 h
  percent apoptotic cells as measured with the probe: about 50%
HeLa cells [1]; HeLa treated with camptothecin
  change of staining with increasing amounts of FBS (FACS): significantly decreased
Apoptotic cells [5]
  staining in PBS (without calcium or magnesium) compared to Annexin Binding Buffer (2.5 mM calcium): significantly decreased
Apoptotic cells [6]
  staining / quantification of apoptosis with probe added directly to normal growth medium: No Annexin V staining

## Cc1cn(-c2cc(NC(=O)c3ccc(C)c(Nc4nccc(-c5cccnc5)n4)c3)cc(C(F)(F)F)c2)cn1 [AMN107, nilotinib]
[7]
  difference between treated animals and vehicle-treated controls by BLI: 2 log
  tumor response by BLI: tumor regression

## Cy5.5-labeled Annexin V: Cy5.5-labeled Annexin V (Abcam) [reference compound]
HeLa cells [2]
  staining pattern (confocal microscopy): membranous

## FITC-labeled chicken LDH: chicken LDH-B labeled with fluorescein isothiocyanate
HeLa cells [2]
  staining pattern (confocal microscopy): punctate cytoplasmic
THP-1 cells [3]
  staining of apoptotic cells in the presence of excess unlabeled Annexin V: no effect
THP-1 cells [3]; up to 100-(10 μM) and 350-fold (35 μM) excess
  staining of apoptotic cells in the presence of excess unlabeled LDHB: only marginally altered

## Cy5.5-labeled chicken LDH: chicken lactate dehydrogenase (LDH-B) labeled with Cy5.5 N-hydroxysuccinimide ester as described in Example 1
HeLa cells [1]; HeLa, 5 μM camptothecin
  proportion of apoptotic cells detected compared to FITC-labeled Annexin V: comparable
HeLa cells [1]; HeLa, 5 μM camptothecin, 48 h
  cell staining over time (FACS): progressively stained positive
HeLa cells [1]; [8]
  staining of apoptotic cells (FACS): strongly and equally positive
HeLa cells [1]; calcium-free PBS
  staining of apoptotic cells (FACS): strongly and equally positive
HeLa cells [1]; over the range FBS zero to 10 percent, HeLa, 48 h
  percent apoptotic cells as measured with the probe: about 65%
HeLa cells [2]
  staining pattern (confocal microscopy): punctate cytoplasmic
RS4;11 cells
  apoptosis over background levels as measured with the probe: only a mild increase
  staining compared to FITC-Annexin V: comparable

B1: labeled ADH: Cy5.5-labeled yeast alcohol dehydrogenase (Alexa 680-labeled per FIG. 6 legend) (conjugate, UniProt P00330 2-348, looked up)
Alcohol dehydrogenase 1: SIPETQKGVIFYESHGKLEYKDIPVPKPKANELLINVKYSGVCHTDLHAWHGDWPLPVKLPLVGGHEGAGVVVGMGENVKGWKIGDYAGIKWLNGSCMACEYCELGNESNCPHADLSGYTHDGSFQQYATADAVQAAHIPQGTDLAQVAPILCAGITVYKALKSANLMAGHWVAISGAAGGLGSLAVQYAKAMGYRVLGIDGGEGKEELFRSIGGEVFIDFTKEKDIVGAVLKATDGGAHGVINVSVSEAAIEASTRYVRANGTTVLVGMPAGAKCCSDVFNQVVKSISIVGSYVGNRADTREALDFFARGLVKSPIKVVGLSTLPEIYEKMEKGQIVGRYVVDTSK
modifications: Cy5.5 or Alexa 680 label
HeLa cells [1]; 5 μM camptothecin
  uptake by apoptotic HeLa cells (FACS): taken up
HeLa cells [1]
  uptake by control untreated HeLa cells (FACS): not by control untreated HeLa cells

B2: Annexin V-Alexa750: Annexin V (Biovision) conjugated to Alexa750-NHS at a labeling ratio of 2:1 (conjugate, UniProt P08758 2-320, looked up)
Annexin A5: AQVLRGTVTDFPGFDERADAETLRKAMKGLGTDEESILTLLTSRSNAQRQEISAAFKTLFGRDLLDDLKSELTGKFEKLIVALMKPSRLYDAYELKHALKGAGTNEKVLTEIIASRTPEELRAIKQVYEEEYGSSLEDDVVGDTSGYYQRMLVVLLQANRDPDAGIDEAQVEQDAQALFQAGELKWGTDEEKFITIFGTRSVSHLRKVFDKYMTISGFQIEETIDRETSGNLEQLLLAVVKSIRSIPAYLAETLYYAMKGAGTDDHTLIRVMVSRSEIDLFNIRKEFRKNFATSLYSMIKGDTSGDYKKALLLLCGEDD
modifications: Alexa Fluor 750 label
Hepatocyte apoptosis
  mean signal intensity (photons/sec/ROI) of anti-Fas antibody treated animals above IgG control antibody treated animals: 1.8 fold

B3: labeled MDH: Cy5.5-labeled E. coli malate dehydrogenase (Alexa 680-labeled per FIG. 6 legend) (conjugate, UniProt P61889 1-312, looked up)
Malate dehydrogenase: MKVAVLGAAGGIGQALALLLKTQLPSGSELSLYDIAPVTPGVAVDLSHIPTAVKIKGFSGEDATPALEGADVVLISAGVARKPGMDRSDLFNVNAGIVKNLVQQVAKTCPKACIGIITNPVNTTVAIAAEVLKKAGVYDKNKLFGVTTLDIIRSNTFVAELKGKQPGEVEVPVIGGHSGVTILPLLSQVPGVSFTEQEVADLTKRIQNAGTEVVEAKAGGGSATLSMGQAAARFGLSLVRALQGEQGVVECAYVEGDGQYARFFSQPLLLGKNGVEERKSIGTLSAFEQNALEGMLDTLKKDIALGEEFVNK
modifications: Cy5.5 or Alexa 680 label
HeLa cells [1]; 5 μM camptothecin
  uptake by apoptotic HeLa cells (FACS): taken up
HeLa cells [1]
  uptake by control untreated HeLa cells (FACS): not by control untreated HeLa cells
